Values after ≈ are worked out from the molar mass of the structure shown.
Legend:
E. coli A-20341-1 = experiment: MIC, tube dilution, Escherichia coli A20341-1; format: cell-based; settings: Escherichia coli, A203411, E. coli A20341-1; overnight 37° C.; read-out: Minimum Inhibitory Concentration (M.I.C.)
From the text: (§1) Representative compounds of the present invention were subjected to in vitro antibiotic screening against a variety of microorganisms.

[1] = test system: Staph. aureus (Meth-Res) A-15097; experiment: MIC, tube dilution, Staphylococcus aureus A15097 (Meth-Res); format: cell-based; settings: Staphylococcus aureus, Staph. aureus A15097 (Meth-Res); overnight 37° C.; read-out: Minimum Inhibitory Concentration (M.I.C.)
From the text: as §1

[2] = test system: Klebsiella species A20468; experiment: MIC, tube dilution, Klebsiella species A20468; format: cell-based; settings: Klebsiella species (K. pneumoniae) A20468; overnight 37° C.; read-out: Minimum Inhibitory Concentration (M.I.C.)
From the text: as §1

Staph. aureus A-9537 = experiment: MIC, tube dilution, Staphylococcus aureus A9537; format: cell-based; settings: Staph. aureus A9537; overnight 37° C., Nutrient Broth
From the text: as §1

Ent. cloacae A-9659 = experiment: MIC, tube dilution, Enterobacter cloacae A9659; format: cell-based; settings: Enterobacter cloacae A9659; overnight 37° C.
From the text: as §1

E. coli A-15119 = experiment: MIC, tube dilution, Escherichia coli A15119; format: cell-based; settings: Escherichia coli, A15119, E. coli A15119; overnight 37° C.; read-out: Minimum Inhibitory Concentration (M.I.C.)
From the text: as §1

Str. pneumoniae A-9585 = experiment: MIC, tube dilution, Streptococcus pneumoniae A9585; format: cell-based; settings: Str. pneumoniae A9585; overnight 37° C., Nutrient Broth
From the text: as §1

Ent. cloacae A-9656 = experiment: MIC, tube dilution, Enterobacter cloacae A9656; format: cell-based; settings: Enterobacter cloacae A9656; overnight 37° C.
From the text: as §1

Str. faecalis A-20688 = experiment: MIC, tube dilution, Streptococcus faecalis A20688; format: cell-based; settings: Str. faecalis A20688; overnight 37° C.
From the text: as §1

Pr. morganii A-15153 = experiment: MIC, tube dilution, Proteus morganii A15153; format: cell-based; settings: Proteus morganii A15153; overnight 37° C.
From the text: as §1

[3] = test system: Staph. aureus (Pen-Res) A-9606; experiment: MIC, tube dilution, Staphylococcus aureus A9606 (Pen-Res); format: cell-based; settings: Staphylococcus aureus, Staph. aureus A9606 (Pen-Res); overnight 37° C.; read-out: Minimum Inhibitory Concentration (M.I.C.)
From the text: as §1

Str. pyogenes A-9604 = experiment: MIC, tube dilution, Streptococcus pyogenes A9604; format: cell-based; settings: Str. pyogenes A9604; overnight 37° C., Nutrient Broth
From the text: as §1

Proteus rettgeri A21203 = experiment: MIC, tube dilution, Proteus rettgeri A21203; format: cell-based; settings: Proteus rettgeri A21203; overnight 37° C.
From the text: as §1

E. coli A15119 = experiment: In vivo protection of mice, lethal infection with E. coli A15119; settings: Escherichia coli, IM, 2 treatments, 7.8 × 10^5 organisms, read-out: PD50
Description: (§2) Representative compounds of the present invention were also tested in vivo in mice and their PD50 (dose of compound in mg/kg required to protect 50% of the treated mice against an otherwise lethal infection of a micro-organism) values determined with respect to the test organisms shown below.

Ps. aeruginosa A-21213 = experiment: MIC, tube dilution, Pseudomonas aeruginosa A21213; format: cell-based; settings: Pseudomonas aeruginosa, A21213, Pseudomonas aeruginosa A21213; overnight 37° C.; read-out: Minimum Inhibitory Concentration (M.I.C.)
From the text: as §1

Pr. mirabilis A-9900 = experiment: MIC, tube dilution, Proteus mirabilis A9900; format: cell-based; settings: Proteus mirabilis A9900; overnight 37° C.
From the text: as §1

[4] = test system: Staph. aureus A-9537 and 50% serum; experiment: MIC, tube dilution, Staph. aureus A9537 + 50% serum; format: cell-based, Staphylococcus aureus; settings: overnight 37° C.
From the text: as §1

Ser. marcescens A-20019 = experiment: MIC, tube dilution, Serratia marcescens A20019; format: cell-based; settings: Serratia marcescens A20019; overnight 37° C.
From the text: as §1

Ps. aeruginosa A-9843A = experiment: MIC, tube dilution, Pseudomonas aeruginosa A9843A; format: cell-based; settings: Pseudomonas aeruginosa, A9843A, read-out: Minimum Inhibitory Concentration (M.I.C.), Pseudomonas aeruginosa A9843A; overnight 37° C.
From the text: as §1

Proteus vulgaris A21559 = experiment: MIC, tube dilution, Proteus vulgaris A21559; format: cell-based; settings: Proteus vulgaris A21559; overnight 37° C.
From the text: as §1

K. pneumoniae A-15130 = experiment: MIC, tube dilution, Klebsiella pneumoniae A15130; format: cell-based; settings: Klebsiella pneumoniae, A15130, K. pneumoniae A15130; overnight 37° C.; read-out: Minimum Inhibitory Concentration (M.I.C.)
From the text: as §1

S. aureus A9537 = experiment: In vivo protection of mice, lethal infection with S. aureus A9537; settings: IM, 2 treatments, 9.1 × 10^5 organisms; listed as Ex. 98 (isomer A)
Description: as §2

NC1CCC(C2=C(C(=O)O)N3C(=O)C[C@H]3S2)C1 (single isomer, unassigned) [98 isomer A, 2-(3-Aminocyclopentyl)-penem-3-carboxylic acid]
MIC (E. coli A-20341-1): 16 µg/mL (≈ 62.9 µM) | MIC [1]: > 63 µg/mL | MIC [2]: > 63 µg/mL | Minimum Inhibitory Concentration (M.I.C.) (Staph. aureus A-9537): .03 µg/mL | Minimum Inhibitory Concentration (M.I.C.) (Ent. cloacae A-9659): 4 µg/mL | MIC (E. coli A-15119): 1 µg/mL (≈ 3.93 µM) | Minimum Inhibitory Concentration (M.I.C.) (Str. pneumoniae A-9585): .004 µg/mL | Minimum Inhibitory Concentration (M.I.C.) (Ent. cloacae A-9656): 2 µg/mL | Minimum Inhibitory Concentration (M.I.C.) (Str. faecalis A-20688): 4 µg/mL | Minimum Inhibitory Concentration (M.I.C.) (Pr. morganii A-15153): 4 µg/mL | MIC [3]: 32 µg/mL (≈ 126 µM) | Minimum Inhibitory Concentration (M.I.C.) (Str. pyogenes A-9604): .004 µg/mL | Minimum Inhibitory Concentration (M.I.C.) (Proteus rettgeri A21203): 1 µg/mL | ED50 (E. coli A15119): 17.4 mg/kg | MIC (Ps. aeruginosa A-21213): > 63 µg/mL | Minimum Inhibitory Concentration (M.I.C.) (Pr. mirabilis A-9900): 1 µg/mL | Minimum Inhibitory Concentration (M.I.C.) [4]: .13 µg/mL | Minimum Inhibitory Concentration (M.I.C.) (Ser. marcescens A-20019): 2 µg/mL | MIC (Ps. aeruginosa A-9843A): > 63 µg/mL | Minimum Inhibitory Concentration (M.I.C.) (Proteus vulgaris A21559): 2 µg/mL | MIC (K. pneumoniae A-15130): 4 µg/mL (≈ 15.7 µM) | PD50 (S. aureus A9537): 0.04 mg/kg/treatment

Source: patent US4272437A, “Antibacterial agents, and 4-thio azetidinone intermediates” (priority 1979, dated 1981)
